Laboratory results as given in PMC11017246, “Discovery of GLPG2737, a Potent Type 2 Corrector of CFTR for the Treatment of Cystic Fibrosis in Combination with a Potentiator and a Type 1 Co-corrector” (Journal of Medicinal Chemistry, 2024).

Columns and labels:
CYP3A4 [1] = experiment: CYP3A4 induction (mRNA) in human hepatocytes; assay type: in vitro ADME; conditions: for CYP (3A4) mRNA induction, result in words: compared with positive control rifampicin
Description: Cryopreserved human hepatocytes from a single donor were seeded at 0.1 × 10^6 cells/well. The next day, cells were dosed with test compound in assay medium (final test compound concentration 10 μM; final DMSO concentration 0.1%). Positive control inducer, rifampicin, for CYP3A4, was incubated alongside the test compound. Negative control wells were included where the test compound is replaced by vehicle solvent (0.1% DMSO in assay medium). Each test or control compound was dosed in triplicate at a single concentration (10 μM). The cells were exposed to the solutions for 72 h with fresh solution added every 24 h. For mRNA assessment, all media was removed from each of the wells, and the cells were washed once. The cells were lysed, and total RNA was then isolated from the hepatocyte lysates. Reverse transcription was performed, and quantitative PCR analysis was performed on the resulting cDNA, using gene-specific primer probe sets for CYP3A4 target cDNA and endogenous control. Samples were analyzed using an ABI 7900 HT real time PCR system. For mRNA assessment, relative fold mRNA expression was determined based on the threshold cycle (CT) data of target gene relative to endogenous control for each reaction and normalized to negative control using the 2-ΔΔCT method. Data were expressed as fold activation relative to the vehicle control and, as a percent, to the 10 μM rifampicin using the following formula: % of positive control = ((fold increase of the cpd relative to vehicle control – 1)/(fold increase of the rifampicin at 10 μM – 1)) × 100.

PK rat = assay type: in vivo; conditions: for CLu rat: unbound clearance; for clearance: read-out: CLp rat (converted); for Vd: read-out: Vss rat
Description: These studies were performed with naïve male Sprague–Dawley rats (Janvier France, 6–8 weeks old). Rats were dosed iv via a bolus in the tail vein with a dose level of 0.1 mg/kg or orally as a single esophageal gavage with a dose level of 5 mg/kg. For the iv route, the compound was formulated in PEG200/water (60/40; v/v). For the oral route, the compound was formulated in MC 0.5% (2/98) as a homogeneous suspension. Before the oral dosing, the animals were deprived of food for at least 12 h before compound administration until 3 h after administration. All animals had free access to the tap water. Blood samples were collected under light anesthesia and placed into tubes containing Li-heparin as an anticoagulant. Blood samples were collected up to 24 h after dosing (n = 3 rats per route). After centrifugation, the resulting plasma samples were assayed by LC-MS/MS with a nongood laboratory practice (non-GLP)-validated method. PK parameters were calculated by noncompartmental analysis using WinNonlin software (Certara, Princeton, NJ, USA).

[2] = system: patients with CF homozygous for ΔF508; parameters: method as in PMID 31594690; conditions: patients receiving ivacaftor/lumacaftor; cited from earlier work
[3] = Liver microsomal stability, rat; assay type: in vitro ADME; conditions: rat; matrix not given; read-out: Clintr,unbound rat (converted)
Description: The microsomal stability assay was performed by incubation of test compound at 1 μM, 0.2% DMSO in phosphate buffer with microsomes (0.5 mg/mL) from mouse, rat, dog, or human (Xeno-Tech, Kansas City, KS, USA), and cofactors with final concentrations of 0.6 U/mL glucose-6- phosphate dehydrogenase, 3.3 mM MgCl2, 3.3 mM glucose-6-phosphate, and 1.3 mM nicotinamide adenine dinucleotide phosphate (NADP)+. Before addition of the microsomes (time zero) and after 30 min of incubation at 37 °C with shaking, the reaction was stopped, and proteins were precipitated with an excess of acetonitrile containing an internal standard. The samples were mixed, centrifuged, and filtered, and the supernatant was analyzed by liquid chromatography–mass spectrometry/mass spectrometry (LC–MS/MS). The instrument responses (peak areas/IS peak areas) were referenced to the zero-time point samples (considered as 100%) to determine the percentage of compound remaining. In vitro unbound intrinsic clearance (CLint,u) was calculated from the half-life using the following equations: [drawing 1] [drawing 2] To take into account nonspecific binding, scaled CLint values were corrected with the fraction unbound in microsomes (fu, mic). [drawing 3]
Equilibrium dialysis is a technique used to measure microsomal binding. Briefly, the assay was performed in a 96-well Teflon dialysis unit (Dialysis Device), where each well consists of two chambers separated by a dialysis membrane (membrane strips, MW cutoff 12–14 kDa, HTDialysis). Inactivated liver microsomes (pooled human liver microsomes, Xenotech, protein concentration of 0.5 mg/mL) spiked with a compound (1 μM final concentration, 0.5% DMSO) were added to one chamber and buffer solution (50 mM PBS Buffer) was added to the other side of the well. Each compound was analyzed in duplicate for 4 h at 37 °C. At the end of incubation, both chambers were sampled and analyzed by LC-MS/MS. The unbound microsomal fraction (fu, mic) was calculated as the concentration in buffer divided by the total concentration in the microsomal side. Positive controls included in this assay are terfenadine and verapamil.

CYP3A4 [4] = experiment: CYP reversible inhibition in HLM, CYP3A4; assay type: in vitro ADME; conditions: human, human liver microsomes
Description: Test compounds were diluted in methanol and then added to mixture containing 50 mM potassium phosphate buffer, pH 7.4, human liver microsomes (BD Gentest) and probe substrate. After prewarming for 5 min at 37 °C, the reaction was started by adding cofactor mix (7.65 mg/mL glucose-6-phosphate, 1.7 mg/mL NADP, 6 U/mL of glucose-6-phosphate dehydrogenase), resulting in seven final concentrations of test compounds in the range 0.14–100 μM (2% methanol). Isoform specific conditions regarding probe substrate and microsomal protein concentrations are available in Table 2. Final concentrations of cofactor mix components were as follows: 1.56 mg/mL glucose-6-phosphate, 0.34 mg/mL NADP, and 1.2 U/mL glucose-6-phosphate dehydrogenase. After incubation at 37 °C, the reaction was terminated with acetonitrile:methanol (2:1) solution with internal standard. Samples were centrifuged, and the supernatant fractions were analyzed by LC-MS/MS. The instrument responses (test compounds and internal standard peak areas) were referenced to those for solvent controls (assumed as 100%) in order to determine the percentage reduction in probe metabolism. Percent of control activity vs concentration plots were generated and fitted using GraphPad Prism software to generate IC50.

[5] = male, Sprague-Dawley, plasma, 0.1 mg/kg, iv
[6] = male, Sprague-Dawley, plasma, 0.1 mg/kg, iv, read-out: t1/2 iv rat (converted)
[7] = male, Sprague-Dawley, plasma, iv, 0.1 mg/kg, iv

CYP induction @10 μM (mRNA) % rifampicin (CYP3A4 [1]; data generated by AbbVie team)	CYP induction @10 μM (mRNA) % rifampicin (CYP3A4 [1]; data generated by Galapagos)	CLu rat (PK rat; iv)	clearance (PK rat; [5])	half-life at 24 h (PK rat; [6])	Vd (PK rat; [7])	CLint scaled at 1 μM [3]	F (%) rat (PK rat; 30 mg/kg po)	exposure versus dose (PK rat; dose of 5 to 300 mg/kg)	half-life (PK rat; [6])	IC50 (CYP3A4 [4]; pH 7.4, probe midazolam)	IC50 (CYP3A4 [4]; pH 7.4, probe testosterone)	SMILES	CYP (3A4) mRNA induction, result in words (CYP3A4 [1])	efficacy versus placebo [2]	tolerability [2]
45%	24%	220 mL/min/kg	3.17 mL/min/kg	3.6 h	0.81 L/kg	–	–	–	–	–	–	CN(C)S(=O)(=O)NC(=O)c1cc(N2CCC(N3CCOCC3)CC2)c2c(C3CCC3)nn(-c3ccc(F)cc3)c2n1 [Compound 51]	demonstrated CYP mRNA induction	–	–
4%	6%	333 mL/min/kg	5.33 mL/min/kg	–	1.38 L/kg	82.3 mL/min/kg	69.1%	dose proportional increase in exposure	3.45 h	> 100 µM	> 100 µM	COC1CCN(C2CCN(c3cc(C(=O)NS(=O)(=O)N(C)C)nc4c3c(C3CCC3)nn4-c3ccc(F)cc3)CC2)CC1 [Compound 52, 3-Cyclobutyl-N-(N,N-dimethylsulfamoyl)-1-(4-fluorophenyl)-4-(4-methoxy-[1,4′-bipiperidin]-1′-yl)-1H-pyrazolo[3,4-b]pyridine-6-carboxamide]	devoid of any CYP mRNA induction liability	improved efficacy versus placebo	well tolerated
